According to a melting point compilation (Tetko et al.; mined from patent text by program, amines drawn as free bases though some values may be those of a salt):

Row | melting point [°C] | SMILES
1 | 126 to 127 | COc1ccc(CCOc2cccc(-c3cccc(C(=O)NCCN4CCCC4)c3)n2)cc1OC
2 | > 250 | Nc1nc2ccccc2c2c1nc(O)n2Cc1ccccc1
3 | 252 to 253 | O=C(O)COc1ccc(C(=O)Nc2ccccc2Sc2ccccc2-c2nnn[nH]2)cc1
4 | 47 to 49 | O=C(O)c1cccc(Oc2cccc(C(F)(F)F)c2)n1
5 | 136 to 137 | CCN(c1ccc(SC)cc1C#N)S(=O)(=O)c1ccc(C)cc1
6 | 149 to 150 | Nc1ccccc1Oc1ccc2c(c1)OCC(=O)N2
7 | 110 | CCOC(=O)C(=NOCCI)c1csc(NC(c2ccccc2)(c2ccccc2)c2ccccc2)n1
8 | 129 to 130 | Cc1ccc(-c2cc3cc(Cl)c(Cl)cc3o2)cc1
9 | 193 | CCOC(=O)[C@@H]1CSC=CN1C(=O)[C@@H](Cc1ccccc1)N1C(=O)c2ccccc2C1=O (relative stereo)
10 | 127 | COC(=O)c1c2ccccc2nc2c3ccccc3n(C)c12
11 | 288 to 289 | COc1ccc2cc(-c3ccc(C(=O)O)cc3)ccc2c1
12 | 152 to 153 | CCC(C)c1ccc(-n2c(-c3cc(C)c(OCCO)c(C)c3)nc3ccccc3c2=O)cc1 (stereo not drawn)
13 | 70 to 75 | COC=C(C(=O)OC)c1ccccc1CC(=O)c1ccccc1Cl
14 | 172 to 173 | N#Cc1ccc(C=Cc2ccc(OCC(O)CO)cc2)cc1 (stereo not drawn)
15 | 166 to 167 | Cc1ccc(S(=O)(=O)Nc2nc(-c3ccc(OCc4ccccc4)cc3)cs2)cc1
16 | 365 | CCCn1c(=O)[nH]c2ccc(C(=O)c3nc(-c4cccc(C(=O)O)c4)c4ccccn34)cc2c1=O

Row | melting point [°C] | SMILES
17 | 128 to 132 | COCCOCc1nc2cnc3ccc(OCc4ccccc4)cc3c2n1C
18 | 123 to 125 | COc1ccc(NC(=O)N2C(=O)CC(c3ccc(OC)c(OC4CCCC4)c3)N2C)cc1 (stereo not drawn)
19 | 130 to 133 | CNC(=O)[C@@H](NC(=O)[C@@H](CC(=O)OCc1ccccc1)n1ccc(-c2ccncc2)c1)C(C)(C)C
20 | 210 to 212 | COc1ccc(Cl)cc1NC(=O)[C@H]1[C@H](c2ccc(S(N)(=O)=O)cc2)C12CCCC2 (relative stereo)
21 | 168 to 171 | CC(=O)Oc1ccc(/C=C2/Sc3nc(Nc4ccc(N5CCN(C)CC5)cc4)ncc3NC2=O)cc1
22 | 185 | CN1CCC(C(=O)O)(S(=O)(=O)c2ccc(Oc3ccc(Cl)cc3)cc2)CC1
23 | 184 to 185 | CN1CCN(c2cc(=O)c3ccc4ccccc4c3o2)CC1
24 | 178 | O=C(O)c1cc(Cl)ccc1-n1cccc1
25 | 39 | O=C(O)CCCCCCc1cc(-c2ccccc2)c2ccccc2n1
26 | 192 to 194 | Cc1cc(NC(=O)c2ccccc2O)cc(Cl)c1O
27 | 87 | Cc1c(F)c(Oc2cccc(C(F)(F)F)c2)nc(-c2ccc(C(F)(F)F)cc2)c1F
28 | 148 | COC(=O)C1(NC(=O)Cc2cc(-c3ccc(Cl)cc3)ccc2Cl)CCCC(C(F)(F)F)C1 (stereo not drawn)
29 | 149 to 150 | Nc1ccc(CCC(=O)Nc2ccc(Cl)cc2Cl)cc1N
30 | 166 to 170 | COc1ccc(-c2sc3cc(OC)ccc3c2C(=O)O)cc1
31 | 131 to 132 | CC(=O)c1c(C)nc(C)nc1NCc1ccc(-c2ccccc2-c2nnnn2C(C)(C)C)cc1

Continued, compound first:

Row | SMILES | melting point [°C]
32 | Cc1cc(O)cc(O)c1C(=O)NNC(=O)C(O)c1ccccc1 (stereo not drawn) | 188 to 189
33 | CC(C)(Cc1ccc(Br)cc1)C(C(=O)O)C(=O)O | 169 to 173
34 | CS(=O)(=O)Nc1ccc(OCCCN2CCC(OC(c3ccccc3)c3ccccc3)CC2)cc1 | 41 to 43
35 | O=C1C(=Cc2cc(Br)cs2)CCc2cc(OCCn3ccnc3)ccc21 | 164 to 166
36 | Cc1cccc(NC(=O)NC2N=C(C3CC3)c3cccc(C)c3N(CC(=O)N3CC4CCC(CC4)C3)C2=O)c1 (stereo not drawn) | 172 to 174
37 | Cc1cccc(NC(=O)N(C)C)c1 | 124 to 127
38 | CCS(=O)(=O)CCC(=O)NNC(=O)N1Cc2ccccc2Oc2ccc(C(F)(F)F)cc21 | 139 to 145
39 | CCCC(=O)c1ccc(=O)[nH]c1C | 167 to 168
40 | CCOC1=NS(=O)(=O)C(C#N)=C1N | 228 to 229
41 | O=Cc1ccc(OCc2ccccc2)c([N+](=O)[O-])c1 | 100 to 102
42 | C#CCN(C(C)=O)c1cccc(-c2ccc3nncn3n2)c1 | 195 to 198
43 | c1ccc(-c2nnc3cc(N4CCOCC4)c(OCc4ccccn4)nn23)cc1 | 214
44 | CC1CC(=O)N(CCCCN2C(=O)c3ccccc3C2=O)C1=O (stereo not drawn) | 79 to 80
45 | CC(C)(C)c1cc(C(=O)NNC(N)=S)cc(C(C)(C)C)c1O | 210 to 211
46 | Nc1nc(N2CCC2)c2nc[nH]c2n1 | 280
47 | CC12CCCc3cc(C(=O)O)cc(c31)CCC2 | 213 to 215
48 | Cn1ccc2c1CCn1ccnc1C2=C1CCN(C2CCN(C(=O)c3cc(C(F)(F)F)cc(C(F)(F)F)c3)C(Cc3ccccc3)C2)CC1 (stereo not drawn) | 133
49 | OCCC#CC1CCC(COc2ccc(F)cc2)O1 (mixture of isomers) | 76
50 | O=C(Nc1ccccc1)N1CCC(CN2CCc3c([nH]c4ccccc34)C2)CC1 | 207 to 209
51 | Cn1cc(C(=O)NCc2ccc(Cl)cc2)c(=O)c2cc(/C=C\CO)cc(F)c21 | 182 to 184
52 | COC(=O)C1=C(C)NC(c2cnc(Cl)s2)=NC1c1ccc(F)cc1 (stereo not drawn) | 175 to 178
53 | Cc1cc(Cl)n2nc(S(=O)(=O)Nc3c(Cl)cccc3Cl)nc2n1 | 217 to 220
54 | CC(=O)CC(=O)Nc1cccc(C(F)(F)F)c1 | 109 to 110

Row | SMILES | melting point [°C]
55 | CC(=O)C=Cc1ccc(NS(C)(=O)=O)c(Sc2ccc(F)cc2F)c1 | 119 to 120
56 | Nc1c(Cl)cc(C(O)CNCCCCCCOCCCc2ccc(CO)cc2)cc1Cl (stereo not drawn) | 56 to 59
57 | CCOP(=O)(OCC)C(Nc1nc2ccccc2s1)P(=O)(OCC)OCC | 165 to 167
58 | C=CCc1cc(C2=NNC(=O)CC2)ccc1OCC1CO1 (stereo not drawn) | 92.5 to 95
59 | O=CN1CC(CCN2CC=C(c3c[nH]c4cc(Cl)ccc34)CC2)c2ccccc21 (stereo not drawn) | 183 to 185
60 | O=C(O)C1CSC(c2cc(Cl)ccc2OCCO[N+](=O)[O-])N1 (stereo not drawn) | 134 to 135
61 | CCOC(=O)[C@H](CO)NC(=O)[C@H](CC(=O)OCc1ccccc1)NC(=O)OC(C)(C)C | 96 to 97
62 | COc1cc2c(c3c1OC(C)(C)C3)C(c1ccc(=O)n(-c3cc(C)ccn3)c1)=NC(C)(C)C2 | 161 to 162
63 | OC1(C(c2ccccc2)c2ccccc2)CSC2=NCCCCN21 (stereo not drawn) | 123 to 125
64 | C=CCn1c(=O)c(OC)nn(-c2cccc(NC(C)=O)c2)c1=O | 72 to 73
65 | CC1=Nc2ccc(S(=O)(=O)NC3CCCCC3)cc2S(=O)(=O)N1 | 239 to 242
66 | Cc1ccc(NC(=O)c2cc(Cl)ccc2NCC2CCN(C3CCCCC3)CC2)nc1 | 176 to 178
67 | C[C@H]1CCCC(C)(C)[C@@H]1[C@H](O)c1ccc(C#N)cc1 | 106 to 108
68 | O=C1CCC(N2C(=O)c3cccc(OCc4ccc(CN5CCN(CC(F)(F)F)CC5)cc4)c3C2=O)C(=O)N1 (stereo not drawn) | 163 to 165
69 | COc1cc2nc(-c3cc(C)c(OCC(N)=O)c(C)c3)[nH]c(=O)c2cc1OC | 354 to 356
70 | COc1ccccc1[C@H](C)C(=O)N1C[C@@H]2[C@H](C1)C(c1ccccc1)(c1ccccc1)C[C@H](O)[C@@]2(O)c1ccccc1OC | 178 to 180
71 | COc1ccc(Nc2c(C#N)cnc3cc(OC)c(OC)cc23)cc1Cl | 278 to 280
72 | O=C1Cc2c(Cl)cccc2Sc2ccc(F)cc21 | 135 to 137
73 | O=C1CCC(N2Cc3c(CNC(=O)Nc4ccc(Cl)c(Cl)c4)cccc3C2=O)C(=O)N1 (stereo not drawn) | 253 to 255
74 | CCCCCCCCCCCCCCCCCCNC(=O)Nc1cccc([N+](=O)[O-])c1 | 102 to 104
75 | CC(=O)OC(OC(C)=O)c1ccc(C(OC(C)=O)(C(F)(F)F)C(F)(F)F)cc1 | 93 to 94.6
76 | CC(C)N1CC(C(C(N)=O)(c2ccccc2)c2ccccn2)C1 (stereo not drawn) | 140 to 141
77 | CC(=O)Nc1ccc(C23CC2C(=O)NC3=O)cc1 (stereo not drawn) | > 230

Row | SMILES | melting point [°C]
78 | N#CC(=NNc1ccc(C(F)(F)F)cc1)C(=O)NCc1ccc(Cl)nc1 | 204 to 205
79 | CN(C)c1ccc(C=O)c(OCC#N)c1 | 124 to 125
80 | OCCn1c(NC2CCN(Cc3ccccc3)CC2)nc2cccnc21 | 126
81 | CCN1C(=O)C(C)(C)C(=O)N(C)c2cc(CN(CCn3ccc4oc(C)cc4c3=O)Cc3ccc(C=O)cc3)ccc21 | 153 to 155
82 | Cc1cc2c(=O)c(C(=O)O)cn(-c3cc(N)c(F)cc3F)c2cc1F | > 280
83 | CNC(=O)N(C)C(=O)Nc1ccccn1 | 112 to 115
84 | CS(=O)(=O)N(Cc1cccnc1)c1ccccc1 | 104 to 105
85 | CC(C)Nc1cccnc1N1CCN(C(=O)c2ccc(C(=O)NCCCN3CCOCC3)cc2)CC1 | 103
86 | Oc1cc(Br)cc(I)c1 | 83 to 84
87 | O=C1Nc2cc(Cl)ccc2Cn2nnnc21 | 256 to 259
88 | CC(C)C(=CC(CNC(=O)c1cccnc1)=NO)C(C)[N+](=O)[O-] (stereo not drawn) | 132 to 135
89 | Nc1cc(F)c(F)c(Br)c1Cl | 83 to 86
90 | CC(=O)NC1CCCCc2sccc21 (stereo not drawn) | 179 to 180
91 | NC(=O)[C@@H]1CCCN1C(=O)/C=C/S(=O)(=O)c1ccccc1 | 157 to 158
92 | COc1ccc2c(CCN3CC=C(c4c[nH]c5ccccc45)CC3)coc2c1 | 54
93 | O=C(Nc1cnc2cc[nH]c2c1)c1cc2cc(F)ccc2n1Cc1cccc(F)c1 | 277 to 278
94 | c1ccc(CCN2CCC(CCc3cc(-c4ccccc4)nc4ccccc34)CC2)cc1 | 80
95 | CC1CCN(c2nc(Nc3cc(C4CC4)n[nH]3)c3ccccc3n2)CC1 | 190
96 | CN(N)c1cc(Cl)ncn1 | 182 to 185
97 | CCc1cccc2c1N(CC(=O)N1CC3CCC(CC3)C1)C(=O)C(NC(=O)Nc1cccc(C)c1)N=C2c1ccccc1F (stereo not drawn) | 163 to 168
98 | OC(Cn1cncn1)(c1ccc(Cl)cn1)c1ccc(Cl)cc1Cl (stereo not drawn) | 149 to 150
